Patent publication US20250281465A1, “MOLECULES THAT ENHANCE EXTRACELLULAR VESICLE RELEASE” (priority 2022, published 2025)
“Also recorded” adds a separate entry of the source.

Legend:
mBMDCs [1] = assay: IL-12 induction in mBMDCs (ELISA); format: cell-based, mouse; conditions: 10 μM / dose response
Description: (§1) All these analogs were evaluated for induction of IL-12 cytokine at 10 μM, followed by dose response IL-12 induction for selected analogs. These analogs were also evaluated for exosome release by quantitating EV release in the supernatant post 48 hours incubation with CD63-Tluc-CD9-EmGFP THP-1 reporter cells.
mBMDCs (10^5 cells/200 μL/well) were plated in wells of 96-well plates and treated with test compound (5 μM or 10 μM) or vehicle (0.5% DMSO) overnight.

[2] = test system: CD63-Tluc-CD9-EmGFP THP-1 reporter cells; assay: CD63 Tluc-CD9 EmGFP THP-1 reporter cell assay (EV/exosome release); format: cell-based, human; conditions: 48 hours incubation
Description: as §1
In the HTS using CD63-Tluc-CD9EmGFP reporter cells (CD63 HTS), PMA (10 ng/ml) was used as a positive control (Shpigelman et al., 2021) and 0.5% DMSO was used as negative control (vehicle, Veh). Briefly, the harvested cells were resuspended in assay media containing 10% exosome-depleted […] (#A2720801, Thermo Fisher Scientific) and plated at 2×10^5 cells/mL (50 μL/well of 384-well plates) (#3674, Corning). Test compounds were added at a final concentration of 10 μM to cells and incubated for 48 hours at 37° C. Subsequently, the plate was centrifuged, supernatant (25 μL) was transferred, and chemiluminescent was measured as recombinant luciferase activity (RLU) after 10 minutes incubation with TurboLuc assay reagent (TurboLuc™ One-Step Glow Assay kit, Thermo Fisher Scientific). The response that measures activation and subsequent release of EVs was calculated using the following formula; % response=100×(compound RLU−average Veh RLU)/(average PMA RLU−average Veh RLU). The viability of cells was assessed using PrestoBlue reagent (Thermo Fisher Scientific). Briefly, PrestoBlue reagent (2.5 μl) was added to the remaining cells and incubated for 30 minutes at room temperature, followed by fluorescence readout at (Ex 560 nm/Em 590 nm) which was normalized to fluorescence data of the Veh wells within the plate to obtain “% viability” calculated as 100×(compound fluorescence/average Veh fluorescence).
CD63 Tluc-CD9 EmGFP THP-1 reporter cell assay. CD63 Tluc CD9 EmGFP THP-1 reporter cell (designated as CD63 Tluc reporter cells) were incubated with 10 μM test compounds, ION (1 μM), or 0.5% DMSO (negative control) in the RPMI 1640 supplemented with exosome-depleted FBS at 5×10^4 cells in 200 μL/well for a 96-well plate for 48 hours at 37° C. Subsequently, the plate was centrifuged, the supernatant was transferred, and chemiluminescence was measured by TurboLuc™ Luciferase One-Step Glow Assay Kit. The response that measures activation and subsequent release of EVs was calculated using the following formula; % response=100×(compound RLU−average Veh RLU)/(average PMA RLU−average Veh RLU).

4T1 breast cancer = assay: Murine lung metastasis models (4T1 breast cancer); format: in vivo, mouse
From the text: Recent advances in cancer immunotherapy have improved patient survival. However, only a minority patients with pulmonary metastatic disease responds to treatment with checkpoint inhibitors. As an alternate approach, we have tested the ability of systemically administered 1V270, a toll-like receptor 7 (TLR7) agonist conjugated to a phospholipid, to inhibit lung metastases in two variant murine 4T1 breast cancer models, as well as in B16 melanoma, and Lewis lung c models.

mBMDCs [3] = assay: Costimulatory molecule expression on mBMDCs (flow cytometry); format: cell-based, mouse; conditions: 634 10 μM, ION 1 μM, MPLA 1 μg/mL overnight, vs Veh
Description: FIGS. 26A-26D. Flow cytometric analysis for costimulatory molecules on mBMDCs. For costimulatory molecules on mBMDCs, mBMDCs (10^6 cells/mL) were incubated with 634 (10 μM), ION (1 μM), and MPLA (1 μg/mL) for 20-24 hours. 0.5% DMSO was used as a vehicle. After removing the supernatant, cells were washed with the stain buffer and incubated with anti-mouse CD16/32 antibody for blocking FcR. Cells were stained with an antibody cocktail with anti-CD86 (A), anti-CD80 (B), anti-MHC class II (C), and anti-CD40 (D) antibodies for 30 minutes at 4° C. Cells were then washed and stained with DAPI (4′,6-diamino-2phenylindole) for 10 minutes at room temperature to exclude dead cells (DAPI^high) from the analysis. Data were acquired using MACSQuant Analyzer 10 (Miltenyi Biotec, Germany) and analyzed with FlowJo (version 10.8.1).
mBMDCs (10^5 cells/200 μL/well) were treated with a test compound (10 μM) or Veh (0.5% DMSO) overnight and then the costimulatory molecule expression on mBMDCs was evaluated using flow cytometry. The cells were stained with antibodies for CD11c, CD80, CD83, CD86, CD40, and MHC class II. Dead cells (DAPI high) were excluded from the analysis. Percent positive population of CD80, CD83, CD86, CD40, or MHC class II in the gated CD11c population were analyzed.
Costimulatory Molecule Expression Analysis. mBMDCs (10^6 cells/mL) were incubated with 10 μM compound, 1 μM lonomycin and 1 μg/mL MPLA for 20 to 24 hours. 0.5% DMSO was used as vehicle. Cells were incubated with anti-mouse CD16/32 antibody for blocking FcR and stained with anti-CD11c, anti-CD40, […], anti-CD83, […], or anti-MHC class II antibodies for 30 minutes at 4° C. Cells were stained with 4′,6-diamino-2-phenylindole (DAPI) for 10 minutes at RT. Data were acquired using MACSQuant Analyzer 10 (Miltenyi Biotec, Germany) and analyzed with FlowJo (version 10.8.1, Becton Dickinson, Ashland, OR)).

## Cc1cccc(-c2cncc(-c3nnc(-c4cccc5ccccc45)o3)c2)c1 [2C185]
mBMDCs [1]
  IL-12 induction: enhance exosome release and IL-12 induction; also recorded: induced IL-12 in BMDCs
[2]
  exosome (EV) release in CD63 reporter THP-1 cells: enhance exosome release; also recorded: enhanced exosome release in CD63 reporter THP-1 cells

## Cc1ccccc1-c1cncc(-c2nnc(-c3cccc4ccccc34)o2)c1 [2C183]
mBMDCs [1]
  IL-12 induction: induced IL-12 in BMDCs
[2]
  exosome (EV) release in CD63 reporter THP-1 cells: enhanced exosome release in CD63 reporter THP-1 cells

## CCCCCCCC/C=C\CCCCCCCC(=O)OCC(COP(=O)(O)OCCNC(=O)c1ccc(Cn2c(=O)[nH]c3c(N)nc(OCCOC)nc32)cc1)OC(=O)CCCCCCC/C=C\CCCCCCCC (stereo not drawn) [1V270]
4T1 breast cancer; 4T1 breast cancer models, systemic administration
  lung metastases / tumor cell colonization in the lungs: inhibited lung metastases; also recorded: inhibited colonization by tumor cells in the lungs
4T1 breast cancer; compared to the unconjugated agonist
  toxic effects: minimal toxic effects
4T1 breast cancer; intranasal administration
  lung metastasis after intranasal administration: suppressed lung metastasis

## C[C@H](CCC(=O)O)C[C@H](C)C[C@H](C)C(=O)/C=C(\O)[C@H](C)C[C@H](C)C/C=C/[C@@H](C)[C@@H](O)[C@@H](C)[C@@H](O)C[C@@H]1CC[C@@](C)([C@H]2CC[C@@](C)([C@@H](C)O)O2)O1 [ION, ionomycin, reference compound]
mBMDCs [3]
  CD80 expression on mBMDCs: increased CD86 and CD80 expression on mBMDCs
  CD86 expression on mBMDCs: increased CD86 and CD80 expression on mBMDCs
